Experimental data from patent publication US10155749B2, “Substituted benzimidazolium compounds useful in the treatment of respiratory diseases” (Boehringer Ingelheim International GmbH, priority 2015, dated 2018).

These compounds were tested against T1, ENaC (Epithelial Sodium Channel) (Mus musculus, UniProt Q61180+Q9WU38+Q9WU39) (assay: Ussing Chamber assay (short circuit current, amiloride sensitive I_SC) in M-1 cells). Settings: Mouse kidney M-1 cells, apical application, 37° C.
T1 construct: Mouse kidney M-1 cells were cultivated in DMEM containing 5% FCS and 5 μM dexamethasone; endogenous in cells; host or cells: Mouse kidney M-1 cells
T1 sequence (Q61180 1-699): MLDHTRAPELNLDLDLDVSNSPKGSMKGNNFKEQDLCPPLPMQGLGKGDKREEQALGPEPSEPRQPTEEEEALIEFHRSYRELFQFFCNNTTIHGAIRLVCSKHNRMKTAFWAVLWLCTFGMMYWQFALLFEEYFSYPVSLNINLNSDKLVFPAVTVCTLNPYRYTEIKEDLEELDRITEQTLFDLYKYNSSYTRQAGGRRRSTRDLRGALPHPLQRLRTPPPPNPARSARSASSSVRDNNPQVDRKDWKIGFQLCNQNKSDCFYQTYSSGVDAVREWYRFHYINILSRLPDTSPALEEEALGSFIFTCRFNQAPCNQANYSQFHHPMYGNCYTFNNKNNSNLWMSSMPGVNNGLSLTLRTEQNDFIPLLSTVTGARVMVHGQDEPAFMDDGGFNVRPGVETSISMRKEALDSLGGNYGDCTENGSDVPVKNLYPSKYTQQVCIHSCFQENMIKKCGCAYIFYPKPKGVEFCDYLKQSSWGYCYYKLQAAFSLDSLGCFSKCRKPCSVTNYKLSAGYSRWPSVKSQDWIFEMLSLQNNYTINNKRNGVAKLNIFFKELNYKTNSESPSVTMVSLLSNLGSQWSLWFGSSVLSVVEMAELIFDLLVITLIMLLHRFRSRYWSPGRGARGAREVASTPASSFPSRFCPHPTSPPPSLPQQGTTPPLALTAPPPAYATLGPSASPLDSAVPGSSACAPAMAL
T1 sequence (Q9WU38 1-638): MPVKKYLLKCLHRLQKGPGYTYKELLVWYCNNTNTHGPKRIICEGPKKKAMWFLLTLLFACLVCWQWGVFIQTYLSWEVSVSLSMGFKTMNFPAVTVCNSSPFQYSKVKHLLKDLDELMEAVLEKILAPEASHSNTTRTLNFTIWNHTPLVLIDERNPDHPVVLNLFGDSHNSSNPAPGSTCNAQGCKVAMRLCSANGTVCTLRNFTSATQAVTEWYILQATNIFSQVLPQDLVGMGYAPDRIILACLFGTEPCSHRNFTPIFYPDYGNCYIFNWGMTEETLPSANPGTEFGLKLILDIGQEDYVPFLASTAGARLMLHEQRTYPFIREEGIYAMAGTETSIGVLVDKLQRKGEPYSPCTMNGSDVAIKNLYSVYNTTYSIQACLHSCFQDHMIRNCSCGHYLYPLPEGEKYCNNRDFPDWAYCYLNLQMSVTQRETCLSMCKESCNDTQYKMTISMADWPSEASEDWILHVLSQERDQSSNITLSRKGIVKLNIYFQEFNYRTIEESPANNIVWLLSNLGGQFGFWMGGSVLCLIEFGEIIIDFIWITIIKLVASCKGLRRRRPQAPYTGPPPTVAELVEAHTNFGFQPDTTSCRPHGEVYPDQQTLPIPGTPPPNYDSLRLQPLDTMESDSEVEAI
T1 sequence (Q9WU39 1-655): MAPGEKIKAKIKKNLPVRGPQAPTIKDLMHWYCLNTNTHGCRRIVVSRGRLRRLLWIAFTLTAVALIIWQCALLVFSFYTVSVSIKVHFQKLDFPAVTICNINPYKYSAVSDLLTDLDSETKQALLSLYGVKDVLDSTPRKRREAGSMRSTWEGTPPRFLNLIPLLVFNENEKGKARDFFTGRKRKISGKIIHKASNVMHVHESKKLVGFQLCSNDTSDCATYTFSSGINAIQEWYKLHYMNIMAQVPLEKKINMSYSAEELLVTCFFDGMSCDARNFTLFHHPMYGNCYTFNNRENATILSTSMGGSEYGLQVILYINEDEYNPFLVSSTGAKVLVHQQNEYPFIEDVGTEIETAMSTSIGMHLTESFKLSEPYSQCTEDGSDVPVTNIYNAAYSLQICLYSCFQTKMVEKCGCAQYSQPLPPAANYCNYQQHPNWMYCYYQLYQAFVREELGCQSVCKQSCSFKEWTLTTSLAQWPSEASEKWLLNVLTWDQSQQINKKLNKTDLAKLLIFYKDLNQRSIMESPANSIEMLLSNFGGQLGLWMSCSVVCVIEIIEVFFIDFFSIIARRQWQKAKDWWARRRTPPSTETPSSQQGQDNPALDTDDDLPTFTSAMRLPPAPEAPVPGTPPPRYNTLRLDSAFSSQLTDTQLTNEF
Type: cell-based
Method: The IC50 values of the example compounds given above were determined in the Ussing Chamber assay.
Ussing Chamber: Mouse kidney M-1 cells were cultivated in DMEM containing 5% FCS and 5 μM dexamethasone for 10 to 12 days on polyester transwell filters. Filters were inserted into a teflon-coated well-plate which fit into the ussing chamber system. Prior to measurement the medium of M-1 cells was replaced with Caco-2 transport buffer (Invitrogen, Germany). During measurements, the Ussing chamber temperature was kept at 37° C. Short circuit currents (I_sc) were measured in the voltage-clamp mode with the software package Lab View for data acquisition and analysis. The transepithelial electrical resistance (TEER) was determined by the application of voltage steps of ±5 mV every 5 sec. Compounds were administered at a final concentration of 3 μM or at increasing concentrations (1-3-10 μM) to the apical solution. At the end of each experiment the amiloride sensitive I_SC was measured by adding 3 μM amiloride to the apical compartment. Results are expressed as inhibition in percent of the amiloride effect or as IC50.

Point of comparison: CCNC(=O)COc1cc2c(cc1C(=O)NC1CCN(C(C)=O)CC1)[n+](CC)c(CNC(=O)c1nc(Cl)c(N)nc1N)n2CC [Example 4.13], IC50 4 nM. Against it:
- CCn1c(CNC(=O)c2nc(Cl)c(N)nc2N)[n+](CC)c2ccc(OCCNC(=O)[C@H](C)N(C)C(=O)OC(C)(C)C)cc21 [Example 4.08] — 2-fold lower, 2 nM
- CCn1c(CNC(=O)c2nc(Cl)c(N)nc2N)[n+](CC)c2ccc(OCCNC(=O)CN3CCC(N)CC3)cc21 [Example 6.05] — 4-fold lower, 1 nM
- CCNC(=O)c1cc2c(cc1OCC(=O)NC1CCN(C)CC1)n(CC)c(CNC(=O)c1nc(Cl)c(N)nc1N)[n+]2CC [Example 3.18] — the same, 4 nM
- CCn1c(CNC(=O)c2nc(Cl)c(N)nc2N)[n+](CC)c2cc(C(=O)NC3CCN(C(=O)OC(C)(C)C)CC3)c(OCC(=O)OC(C)(C)C)cc21 [Example 1.13] — 2.2-fold higher, 9 nM
- CCNC(=O)c1cc2c(cc1OCC(=O)NC1CCNCC1)n(CC)c(CNC(=O)c1nc(Cl)c(N)nc1N)[n+]2CC [Example 6.08] — 4-fold lower, 1 nM
- CCn1c(CNC(=O)c2nc(Cl)c(N)nc2N)[n+](CC)c2cc(C(=O)NC3CCN(C(=O)OC(C)(C)C)CC3)c(OCC(=O)O)cc21 [Example 9.01] — 2.2-fold higher, 9 nM
- CCCn1c(CNC(=O)c2nc(Cl)c(N)nc2N)[n+](C)c2ccc(OCC(=O)N(C)Cc3nc(C)ccc3O)cc21 [Example 1.07] — within 1.5-fold, 3 nM
- CCCCCC(=O)N(CCOc1ccc2c(c1)n(C[C@H](C)O)c(CNC(=O)c1nc(Cl)c(N)nc1N)[n+]2CC)CP(C)(C)=O [Example 1.06] — 2-fold lower, 2 nM
- CCn1c(CNC(=O)c2nc(Cl)c(N)nc2N)[n+](CC)c2ccc(OCC(=O)N(C)Cc3nc(C)ccc3[O-])cc21 [Example 3.02] — 10-fold lower, 0.4 nM
- CCn1c(CNC(=O)c2nc(Cl)c(N)nc2N)[n+](CC)c2ccc(OCCNC(=O)C3CCCN3C(=O)OC(C)(C)C)cc21 (stereo not shown) [Example 4.11] — 2-fold lower, 2 nM
- CCn1c(CNC(=O)c2nc(Cl)c(N)nc2N)[n+](CCO)c2cc(OCC(=O)N3CCN(C(C)=O)CC3)ccc21 [Example 1.14] — within 1.5-fold, 3 nM
- CCn1c(CNC(=O)c2nc(Cl)c(N)nc2N)[n+](CC)c2ccc(OCC(=O)NC3CCNCC3)cc21 [Example 3.24] — 40-fold lower, 0.1 nM
- CCOc1cc2c(cc1C(=O)N1CCNCC1)[n+](CC)c(CNC(=O)c1nc(Cl)c(N)nc1N)n2CC [Example 8.02] — 4-fold lower, 1 nM
- CCn1c(CNC(=O)c2nc(Cl)c(N)nc2N)[n+](CC)c2ccc(OCCNC(=O)C3CCCN3C)cc21 (stereo not shown) [Example 4.06] — 13-fold lower, 0.3 nM
- CCCCCCN1CCC(NC(=O)COc2cc3c(cc2C(=O)NCC)[n+](CC)c(CNC(=O)c2nc(Cl)c(N)nc2N)n3CC)CC1 [Example 3.20] — 3.8-fold higher, 15 nM
- CCOc1cc2c(cc1C(=O)N1CCN(C(=O)Cc3ccccn3)CC1)[n+](CC)c(CNC(=O)c1nc(Cl)c(N)nc1N)n2CC [Example 4.12] — 2-fold lower, 2 nM
- CCn1c(CNC(=O)c2nc(Cl)c(N)nc2N)[n+](CC)c2ccc(OCCNC(=O)C3CCCN3)cc21 (stereo not shown) [Example 6.04] — 10-fold lower, 0.4 nM
- CC[n+]1c(CNC(=O)c2nc(Cl)c(N)nc2N)n(C[C@H](C)O)c2cc(N(C)C)c(C(=O)N3CCN(C(=O)c4cncc(O)c4)CC3)cc21 [Example 4.17] — 5.8-fold higher, 23 nM
- CCOc1cc2c(cc1C(=O)N1CCN(C(=O)c3cncc(O)c3)CC1)[n+](CC)c(CNC(=O)c1nc(Cl)c(N)nc1N)n2CC [Example 4.16] — 2-fold lower, 2 nM
- CCn1c(CNC(=O)c2nc(Cl)c(N)nc2N)[n+](CC)c2ccc(OCCNC(=O)CN3CCC(NC(=O)OC(C)(C)C)CC3)cc21 [Example 4.10] — 4-fold lower, 1 nM
- CCn1c(CNC(=O)c2nc(Cl)c(N)nc2N)[n+](CC)c2ccc(OCC(=O)Nc3cncc([O-])c3)cc21 [Example 3.03] — 13-fold lower, 0.3 nM
- CC[n+]1c(CNC(=O)c2nc(Cl)c(N)nc2N)n(CCO)c2cc(OCC(=O)NC3CCN(C(C)=O)CC3)ccc21 [Example 1.04] — 2-fold lower, 2 nM
- CCn1c(CNC(=O)c2nc(Cl)c(N)nc2N)[n+](CC)c2cc(C(=O)NC3CCNCC3)c(OCC(=O)O)cc21 [Example 7.02] — 7.2-fold higher, 29 nM
- CCNC(=O)c1cc2c(cc1OCC(=O)NC1CCN(C(=O)OC(C)(C)C)CC1)n(CC)c(CNC(=O)c1nc(Cl)c(N)nc1N)[n+]2CC [Example 3.19] — 2.2-fold higher, 9 nM
- CCn1c(CNC(=O)c2nc(Cl)c(N)nc2N)[n+](CC)c2cc(C(=O)NC3CCNCC3)c(OCC(=O)NC3CCN(C)CC3)cc21 [Example 3.22] — 2.5-fold higher, 10 nM
- CCn1c(CNC(=O)c2nc(Cl)c(N)nc2N)[n+](CC)c2ccc(OCC(=O)Nc3cncc(OCc4ccccc4)c3)cc21 [Example 3.13] — 2-fold lower, 2 nM
- CCn1c(CNC(=O)c2nc(Cl)c(N)nc2N)[n+](CC)c2cc(C(=O)NC3CCNCC3)c(F)cc21 [Example 6.06] — 10-fold lower, 0.4 nM
- CCN(CC)CC(=O)NCCOc1ccc2c(c1)n(CC)c(CNC(=O)c1nc(Cl)c(N)nc1N)[n+]2CC [Example 4.04] — 4-fold lower, 1 nM
- CCNC(=O)c1cc2c(cc1OCC(=O)O)n(CC)c(CNC(=O)c1nc(Cl)c(N)nc1N)[n+]2CC [Example 7.01] — 9.5-fold higher, 38 nM
- CC[n+]1c(CNC(=O)c2nc(Cl)c(N)nc2N)n(CC2CCCCC2)c2cc(OCC[n+]3cccc(O)c3)ccc21 [Example 1.03] — within 1.5-fold, 5 nM
- CCCCCCN1CCC(NC(=O)COc2ccc3c(c2)n(CC)c(CNC(=O)c2nc(Cl)c(N)nc2N)[n+]3CC)CC1 [Example 3.04] — 6.7-fold lower, 0.6 nM
- CCN1CCC(NC(=O)COc2ccc3c(c2)n(CC)c(CNC(=O)c2nc(Cl)c(N)nc2N)[n+]3CC)CC1 [Example 3.09] — 20-fold lower, 0.2 nM
- CCn1c(CNC(=O)c2nc(Cl)c(N)nc2N)[n+](CC)c2cc(C(=O)O)c(N3CCOCC3)cc21 [Example 6.01] — 3.5-fold higher, 14 nM
- CCNC(=O)COc1cc2c(cc1C(=O)NC1CCNCC1)[n+](CC)c(CNC(=O)c1nc(Cl)c(N)nc1N)n2CC [Example 6.03] — 2-fold higher, 8 nM
- CCn1c(CNC(=O)c2nc(Cl)c(N)nc2N)[n+](CC)c2ccc(OCCNC(=O)CN3CCN(C)CC3)cc21 [Example 4.05] — 10-fold lower, 0.4 nM
- CCCCCCN(C)C(=O)c1cc2c(cc1N1C[C@H](O)[C@@H](O)C1)n(CCO)c(CNC(=O)c1nc(Cl)c(N)nc1N)[n+]2CC [Example 1.16] — 2.8-fold higher, 11 nM
- CC[n+]1c(CNC(=O)c2nc(Cl)c(N)nc2N)n(C[C@H](C)O)c2cc(N(C)C)c(C(=O)N3CCNCC3)cc21 [Example 8.01] — 1.5-fold higher, 6 nM
- CCn1c(CNC(=O)c2nc(Cl)c(N)nc2N)[n+](CC)c2ccc(OCCNC(=O)[C@H](C)N)cc21 [Example 6.07] — 10-fold lower, 0.4 nM
- CCn1c(CNC(=O)c2nc(Cl)c(N)nc2N)[n+](CC)c2cc(F)c(C(=O)NCCCN(C)C)cc21 [Example 3.07] — 4-fold lower, 1 nM
